Data taken from ChEMBL document CHEMBL3137667, “[Drug-induced liver injury; fourteenth updated edition of the bibliographic database of liver injuries and related drugs]” (Gastroenterol Clin Biol, 2004).

How the values were obtained:
[1] = human
[2] = human, serum
[3] = human, serum; remark: listed apart in the source
[4] = human; remark: listed apart in the source
[5] = Times to onset, minimal and maximal, observed in the indexed observations. [column 'DELAI' in source]; conditions: human
[6] = human; remark: listed apart in the source
[7] = Highest frequency of moderate liver toxicity observed during clinical trials, expressed as a percentage. [column '% BIOL' in source]; conditions: human
[8] = human; remark: listed apart in the source
[9] = human; remark: listed apart in the source
[10] = human; remark: listed apart in the source
[11] = human; remark: listed apart in the source
[12] = human; remark: listed apart in the source
[13] = Highest frequency of acute liver toxicity observed during clinical trials, expressed as a percentage. [column '% AIGUE' in source]; conditions: human
[14] = human; remark: listed apart in the source
[15] = human, serum, 4383 h
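Wherever Hepatotoxicity (association with vascular disease) is given: count of indexed literature references reporting vascular liver injury in humans, e.g. peliosis hepatitis, hepatic veno-occlusive disease or Budd-Chiari syndrome.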
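Wherever Hepatotoxicity (benign tumour) is given: value is a count of indexed literature references citing a benign tumour confirmed by histopathology.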
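Wherever Hepatotoxicity (choleostasis) is given: human cholestatic liver injury, shown by histopathology or by peak ALT or AST elevation over alkaline phosphatase ratio below 2, value counts indexed literature reports.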
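Wherever Hepatotoxicity (chronic liver disease) is given: chronic liver injury confirmed by histopathology or persistently raised serum aminotransferase activity beyond 6 months, value given as the count of indexed literature references.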
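Wherever Hepatotoxicity (cirrhosis) is given: value is a count of indexed literature references reporting cirrhosis confirmed by histopathology.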
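Wherever Hepatotoxicity (cytolytic) is given: human cytolytic liver injury, shown by histopathology or by a ratio above 5 of peak ALT or AST elevation to alkaline phosphatase elevation, value counts indexed references.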
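Wherever Hepatotoxicity (granulomatous hepatitis) is given: value is a count of indexed literature references reporting granulomatous liver disease confirmed by histopathology.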
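Wherever Hepatotoxicity (malignant tumour) is given: malignant tumour confirmed by histopathology, value gives the count of indexed literature references reporting it.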
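Wherever Hepatotoxicity (severe hepatitis) is given: human clinical data: severe hepatitis, meaning potentially life-threatening liver failure or clinically observed cases, the value counts how many indexed literature references report it.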
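Wherever Hepatotoxicity (steatosis) is given: steatosis confirmed by histopathology, value is the count of indexed references.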

Row | SMILES | Hepatotoxicity (malignant tumour) [1] | Hepatotoxicity (moderate) [2] | Hepatotoxicity (acute) [3] | Hepatotoxicity (steatosis) [4] | Hepatotoxicity (time to onset) [5] | Hepatotoxicity (cirrhosis) [6] | Hepatotoxicity (moderate) [7] [%] | Hepatotoxicity (choleostasis) [8] | Hepatotoxicity (cytolytic) [9] | Hepatotoxicity (granulomatous hepatitis) [10] | Hepatotoxicity (benign tumour) [11] | Hepatotoxicity (severe hepatitis) [12] | Hepatotoxicity (acute) [13] [%] | Hepatotoxicity (association with vascular disease) [14] | Hepatotoxicity (chronic liver disease) [15] | further results
1 | CN(C)CCn1nnnc1SCC1=C(C(=O)O)N2C(=O)[C@@H](NC(=O)Cc3csc(N)n3)[C@H]2SC1 [CEFOTIAM] | 0 | 8 | 1 | 0 | 4 days | 0 | 33 | 0 | 0 | 0 | 0 | 0 | 0.8 | 0 | 0 | 
2 | Cc1cc(O)c(C(=O)N[C@@H](C(=O)N[C@@H]2C(=O)N3C(C(=O)O)=C(CSc4nnnn4C)CS[C@H]23)c2ccc(O)cc2)cn1 [CEFPIRAMIDE] | 0 | 5 | 1 | 0 | 1 month | 0 | 10 | 0 | 1 | 0 | 0 | 0 | 0 | 0 | 0 | 
3 | Cc1ccc(-c2cc(C(F)(F)F)nn2-c2ccc(S(N)(=O)=O)cc2)cc1 [CELECOXIB] | 0 | 3 | 8 | 0 | 2 days - 3 weeks | 0 |  |  |  |  | 0 |  |  | 0 | 0 | Hepatotoxicity (moderate) ([7]; Liver): 2%; Hepatotoxicity (choleostasis) ([8]; Liver): 4; Hepatotoxicity (cytolytic) ([9]; Liver): 5; Hepatotoxicity (granulomatous hepatitis) ([10]; Liver): 0; Hepatotoxicity (severe hepatitis) ([12]; Liver): 0; Hepatotoxicity (acute) ([13]; Liver): 0%
4 | CCN(CC)CCCC(C)Nc1ccnc2cc(Cl)ccc12 (stereo not given) [CHLOROQUINE] | 0 | 7 | 8 | 0 | 1 day - 4 months | 0 | 0 | 1 | 4 | 1 | 0 | 0 | 0 | 0 | 0 | 
5 | O=NN(CCCl)C(=O)N[C@H]1C(O)O[C@H](CO)[C@@H](O)[C@@H]1O (stereo not given in full) [CHLOROZOTOCIN] | 0 | 2 | 2 | 0 | 1.5 months | 0 | 33 | 1 | 1 | 0 | 0 | 0 | 0 | 0 | 0 | 
6 | CN(C)CCC(c1ccc(Cl)cc1)c1ccccn1.O=C(O)/C=C\C(=O)O (stereo not given) [CHLORPHENIRAMINE MALEATE] | 0 | 0 | 2 | 0 | 1 month | 0 |  | 1 | 1 | 0 | 0 |  |  | 0 | 0 | Hepatotoxicity (moderate) ([7]; Liver): 0%; Hepatotoxicity (severe hepatitis) ([12]; Liver): 0; Hepatotoxicity (acute) ([13]; Liver): 0%
7 | CN(C)CC/C=C1/c2ccccc2Sc2ccc(Cl)cc21 [CHLORPROTHIXENE] | 0 | 0 | 1 | 0 | 1 week | 0 | 0 | 1 | 0 | 0 | 0 | 0 | 0 | 0 | 0 | 
8 | CCOC(=O)[C@H](CCc1ccccc1)N[C@H]1CCCN2CCC[C@@H](C(=O)O)N2C1=O [CILAZAPRIL] | 0 | 1 | 0 | 0 | 2 months | 0 | 1.2 | 0 | 0 | 0 | 0 | 0 | 0 | 0 | 0 | 
9 | C(=C\c1ccccc1)/CN1CCN(C(c2ccccc2)c2ccccc2)CC1 [CINNARIZINE] | 0 | 0 | 2 | 0 | 3 weeks - 7 weeks | 0 | 0 | 2 | 0 | 0 | 0 | 0 | 0 | 0 | 0 | 
10 | COc1cc(N)c(Cl)cc1C(=O)NC1CCN(CCCOc2ccc(F)cc2)CC1OC (stereo not given) [CISAPRIDE] | 0 | 2 | 1 | 0 | 4 days | 0 | 0 | 0 | 1 | 0 | 0 | 0 | 0 | 0 | 0 | 
11 | Nc1nc(Cl)nc2c1ncn2[C@H]1C[C@H](O)[C@@H](CO)O1 [CLADRIBINE] | 0 | 4 | 2 | 0 | 2 weeks - 6 months | 0 | 13 | 0 | 1 | 0 | 0 | 0 | 9.1 | 1 | 0 | 
12 | CN1C(=O)CC(=O)N(c2ccccc2)c2cc(Cl)ccc21 [CLOBAZAM] | 0 | 1 | 0 | 0 | 1 week | 0 | 2.1 | 0 | 0 | 0 | 0 | 0 | 0 | 0 | 0 | 
13 | CC(Cc1ccccc1)NCc1ccccc1Cl (stereo not given) [CLOBENZOREX] | 0 | 0 | 1 | 0 | 2 weeks | 0 | 0 | 0 | 1 | 0 | 0 | 0 | 0 | 0 | 0 | 
14 | CCN(CC)CCOc1ccc(C(=C(Cl)c2ccccc2)c2ccccc2)cc1 [CLOMIPHENE] | 1 | 1 | 2 | 0 | 2 weeks - 8 years | 0 | 0 | 1 | 1 | 0 | 1 | 0 | 0 | 0 | 0 | 
